Experimental findings from a melting point compilation (Tetko et al.; mined from patent text by program, amines drawn as free bases though some values may be those of a salt) are described below.

Regarding `Cc1c(C(=O)O)oc2c(C(C)(C)C)ccc(O)c12`, the melting point is 219 to 222 °C.

As to `OCCCCCCCCCCCCCCCCN(CCO)CCO`, the melting point fell in the range of 67.6 to 68.8 °C.

Compound `O=C(O)c1ccc(CCCOCCCCCCNCC(O)c2ccc(O)c(CO)c2)cc1` (stereo not given) had a melting point of 50 to 58 °C.

`C=C(C)C(=O)c1ccc2c(c1)oc(=O)n2C` had a melting point of 127 °C.

`O=Cc1ccc(N(c2ccccc2)c2ccc3c4c(cccc24)CC3)cc1` returned a melting point of 138 to 141 °C.

The compound `CC(NCc1ccccc1)N(Cc1ccccc1)CC(C)[N+](=O)[O-]` (stereo not given) yielded a melting point of 49.5 to 50 °C.

Compound `CC(=O)c1ccc(Oc2ncccc2C(=O)O)cc1` registered a melting point of 184 to 186 °C.

For `C=C(C)COc1ccc(Br)cc1CN(CC)c1ccc(C(=O)NS(=O)(=O)c2c(C)noc2C)nn1`, the melting point is 120 °C.

With `Cc1nsnc1-c1cccnc1`, the melting point is 55 to 57 °C.

On to `Cc1cc2nccn2nc1OCCCS(=O)(=O)N1CCN(C)CC1`, for which the melting point lay in the range of 118 to 120 °C.

For the compound `COC(=O)CCn1c(=O)n2n(c1=O)C(C(=O)OC)C=CC2` (stereo not given), the melting point lay within 91 to 92 °C.

The compound `Cc1cccc(C(C)(C)C)c1NC(=O)NCC1(c2ccccc2)CCCCC1` yielded a melting point of 196 to 197 °C.

Compound `CC(C)(Cc1cc2cc(OCc3ccc4occc4n3)ccc2n1Cc1ccc(Cl)cc1)C(=O)O` showed a melting point of 157 °C.

Turning to `Cc1cc(Oc2cccc(C(F)(F)F)c2)nn1C(=O)Nc1ccc(F)cc1F`, the melting point fell in the range of 84 to 85 °C.

Regarding `COc1ccc(-c2nc(Sc3ccccc3)n(Cc3ccccc3)c2-c2ccc(OC)cc2)cc1`, the melting point lay in the range of 113 to 115 °C.

Compound `CCC(=O)NCCc1c(-c2ccccc2)nn2ccc3occc3c12` had a melting point of 161 to 163 °C.

The compound `COC(=O)C1=CCC(=NON)C=C1` displayed a melting point of 170 to 172 °C.

Turning to `COc1ccc(CCc2ccncc2NC(=O)NCc2ccccc2)cc1OC1CCCC1`, the melting point is 152 to 154 °C.

With `Nc1ncc(C2CCN(c3ccc([N+](=O)[O-])cc3)CC2)c(N)n1`, the melting point is > 250 °C.

As for `CC(CS(=O)(=O)c1ccccc1)C1CCC2C3CC=C4CC(O)CCC4(C)C3CCC12C` (stereo not given), the melting point is 158 to 161 °C.

In turn, `CC(CC(C(=O)N(C)C)(c1ccccc1)c1ccccc1)N1CCC(NCc2ccccc2)C(O)C1` (stereo not given) came in with a melting point of 134 °C.

In the case of `Cc1ccc(-c2cncc(OC3SCC(O)C(O)C3O)c2)cc1` (stereo not given), the melting point was determined as 228 °C.

For `O=C(O)c1ccc(Br)cc1C(=O)c1ccccc1`, the melting point was in the range of 185 to 187 °C.

For `COc1cc(Cl)c2c(c1)CCN2c1cc(NC(C)C2CCC2)nc(C)n1` (stereo not given), the melting point fell in the range of 125 to 128 °C.

In the case of `Cc1noc(C)c1C(C)(O)c1ccsc1` (stereo not given), the melting point is 93.5 to 95 °C.

`O=C(O)c1ccc(F)c(F)c1Nc1ccc(I)cc1F` returned a melting point of 199 to 201 °C.

Take `O=c1[nH]c(=O)n(CCCl)c2ccccc12`: the melting point fell in the range of 189 to 192 °C.

In turn, `Cn1nc(-c2ccncc2)c2ccccc2c1=O` had a melting point of 173 to 174 °C.

Regarding `CC(=O)OC[C@H]1NC(=O)[C@H]1NC(=O)C(=NOC(C)(C)C(=O)OCc1ccc([N+](=O)[O-])cc1)c1csc(NC(=O)CCl)n1` (relative stereo), the melting point was 120 to 123 °C.

On to `CCOC(=O)C(C)(C)CCCCOc1cc(C)c(N)c(C)c1`, for which the melting point lay in the range of 32 to 34 °C.

For `COc1ccccc1CN[C@H]1CCCN(C)[C@H]1c1ccccc1` (relative stereo), the melting point is 58 °C.

The compound `CC(=O)c1c(F)cc2c(=O)c(C(=O)O)cn3c2c1OCC3C` (stereo not given) yielded a melting point of 258 to 259 °C.

In turn, `COc1ccccc(NC(=O)C2=C(O)c3ccccc3S(=O)(=O)N2C)c1=O` came in with a melting point of 243 to 247 °C.

Take `NC(=O)Nc1ccc(OC(F)C(F)(F)F)cc1` (stereo not given): the melting point lay within 167 to 168 °C.

As to `CCOC(=O)C(=CC=CN(CC)CCO)S(=O)(=O)c1ccccc1`, the melting point was determined as 107 °C.

Compound `C1CC2CNCCNCCNCCNCC(C1)N2` registered a melting point of 90 to 90.5 °C.

Turning to `CC1OCCN1CCNc1ccc(NCCN2CCOC2C)c2c1C(=O)c1c(O)ccc(O)c1C2=O` (stereo not given), the melting point was 161 to 168 °C.

For the compound `Cn1c(=O)c(-c2ccc(Cl)cc2Cl)cc2c3cc(-c4ccn[nH]4)ccc3n(C)c21`, the melting point fell in the range of 281 to 282 °C.

`COc1ccc(C(=CN(C)C)C(C)=O)cc1` came in with a melting point of 51 °C.

With `CC(C)c1cc(-c2ccc3c(c2)OCO3)nc(Cl)c1C#N`, the melting point was 171 to 173 °C.

In the case of `Cc1cccc2c1nc(COc1ccc(Cl)cc1)n2CCC(C)CNCc1ccccc1` (racemic), the melting point was in the range of 84.5 to 87 °C.

Regarding `CC(=O)Oc1ccc(C(=O)CN(CCNC(=O)Cc2ccccc2)Cc2ccccc2)cc1OC(C)=O`, the melting point was in the range of 140 to 145 °C.

With `CCOC1=C(C(=O)O)CN(C2CCCCC2)C1=O`, the melting point was in the range of 154 to 155 °C.

As for `Cc1c(CC(=O)O)c2cc(O)ccc2n1C(=O)c1ccc(OC(F)(F)F)cc1`, the melting point lay within 193 to 195 °C.

On to `COc1cccc2c1C(C#N)C2` (stereo not given), for which the melting point was in the range of 58 to 59 °C.

The compound `CCc1coc2cc(OCc3ccccc3)ccc12` returned a melting point of 69.5 to 70.5 °C.

As for `CCOC(=O)CCCCc1ccc2c(c1)C[C@@H](NC(=O)OC(C)(C)C)CC2`, the melting point fell in the range of 65 to 67 °C.

In turn, `OC/C=C/C=C(c1ccccc1)c1ccccc1` showed a melting point of 71 to 72 °C.

For the compound `COc1cc(NCCCCCCO)c2nccc(C)c2c1`, the melting point fell in the range of 97 to 99 °C.

Compound `CN1C(=O)CCC2(C)c3ccc(-c4cccs4)cc3CCC12` (stereo not given) had a melting point of 193 to 195 °C.

The compound `O=C(O)C=C=Cc1ccc(C2CCCCC2)cc1` yielded a melting point of 126 to 129 °C.

`Cc1oc(-c2ccccc2)nc1CCOc1ccc(C[C@H](NC(=O)C=Cc2ccccc2)C(=O)O)cc1` registered a melting point of 207 to 209 °C.

`CC1(C#N)CCc2cc(O)c(C(C)(C)C)cc2O1` (stereo not given) registered a melting point of 153 to 155 °C.

`NNc1nccc(-c2ccc(Oc3ccccc3)cc2)c1Cl`: the melting point came to 173 °C.

For the compound `COc1ccc(-n2c(-c3cc(-c4ccc(S(C)(=O)=O)cc4)c(N4CCOCC4)s3)nc3ccccc3c2=O)cc1`, the melting point was in the range of 240 to 243 °C.

Compound `Cn1cc(C(=O)NCc2ccc(Cl)cc2)c(=O)c2cc(CC3CCOCC3)ccc21` registered a melting point of 219 to 221 °C.

The compound `CN(C)C(=N)c1nn(-c2c(Cl)cc(C(F)(F)F)cc2Cl)c(N)c1S(=O)C(F)(F)F` (stereo not given) displayed a melting point of 123 to 126 °C.

Turning to `COc1cccc2c1CCC2C(=O)O` (stereo not given), the melting point was in the range of 117 to 118 °C.

In turn, `C#CCN=c1sc2cc(OC(F)(F)F)ccc2n1CC(=O)c1ccc(C)cc1` yielded a melting point of 98 to 100 °C.

As for `COc1cc(C(C)=O)ccc1OC(C)=O`, the melting point worked out at 58.7 °C.

`COC(OC)c1cc(C)nc(NC(=O)NS(=O)(=O)c2ccccc2Cl)n1` came in with a melting point of 150 to 153 °C.

As to `NC(=O)c1ccc(F)nc1N`, the melting point lay in the range of 198 to 200 °C.

For `CCCCCCCCCCCCCCCCNC(=O)c1cc(O)cc(O)c1`, the melting point was 154 to 156 °C.

Take `CCCc1nc2c(c(C)c(C)n3nnnc23)n1CC(C)(C)NC(=O)NC1CCCCC1`: the melting point lay in the range of 196 to 198 °C.

Take `CN1CCN(C(=O)c2ccccc2C(c2ccc(O)cc2)c2ccc(O)cc2)CC1`: the melting point was 226 to 231 °C.

Consider `CNc1ccn2c(C(=O)c3ccc([N+](=O)[O-])c(OC)c3)c(C)c(C(=O)OCc3ccccc3)c2c1`, for which the melting point was found to be 228 °C.

Consider `CNC(=O)[C@H](Cc1ccc(OCc2ccccc2)cc1)NC(=O)[C@H](CC(C)C)N[C@H](C)C(=O)OC`, for which the melting point lay in the range of 65 to 68 °C.

Consider `CCOC(=O)C(=Cc1cccn2cc(-c3cccc(OC)c3)nc12)N=[N+]=[N-]`, for which the melting point was 109 to 111 °C.

Compound `CC(C)(C(=O)O)c1ccc(Cl)c([N+](=O)[O-])c1` had a melting point of 157 °C.

For the compound `CCCNC(=O)c1ccc2c(c1)N(C(C)CN1CCCCCC1)c1ccccc1S2` (racemic), the melting point is 113 °C.

Consider `C#CCNC(=O)c1cccc(F)c1Nc1nc(Nc2ccc3c(c2)OCCCN3C(C)=O)ncc1Cl`, for which the melting point was in the range of 196 to 199 °C.

As for `CC(=O)Nc1cccc2cccc(N=[N+]=[N-])c12`, the melting point lay in the range of 148 to 149 °C.

Turning to `Cc1cc(C#N)cc(C(=O)Nc2ccc(F)c(C)c2)n1`, the melting point came to 177 °C.

Turning to `CN1C(=O)C2(COc3cc4c(cc32)OCCO4)c2c(-c3cc[nH]n3)cccc21` (stereo not given), the melting point lay within 201 to 202 °C.

Consider `O=C(NCCCc1ccccc1)NCc1ccccn1`, for which the melting point fell in the range of 89 to 90 °C.

With `COc1ccc(C2(C#N)CCC(=O)CC2)cc1OC1CCCC1`, the melting point lay in the range of 111 to 112 °C.

`COC(=O)C1Oc2ccccc2Cc2ccccc2O1` gave a melting point of 107 to 110 °C.

For `O=C(O)CNC(=O)c1ccc(OCc2ccccc2)cc1OCc1ccccc1`, the melting point is 168 to 169 °C.

Regarding `C=CCOc1cccc2oc(C(=O)OCC)c(C)c12`, the melting point lay in the range of 64 to 65 °C.

Consider `CC(C)(C)N1Cc2ccccc2P1(=O)c1ccccc1` (stereo not given), for which the melting point fell in the range of 89 to 91 °C.

Take `CCCCCCCC(=O)N(C)Cc1cccc(-c2ccc(C=CC(=O)O)c(F)c2)c1`: the melting point was determined as 91 °C.

The compound `COC(=O)c1nccnc1Nc1ccc(Cl)cc1[N+](=O)[O-]` displayed a melting point of 191 to 192 °C.

Regarding `COCC(=O)C1CCC2C3CCC4CC(O)CCC4(C)C3C(=O)CC12C` (stereo not given), the melting point was 144 to 146 °C.

Turning to `O=c1[nH]c(=O)n(C2OC(CO)CC2O)cc1F` (stereo not given), the melting point lay in the range of 169 to 171 °C.

`COC(=O)[C@H](Cc1ccc([N+](=O)[O-])cc1)NC(C)=O` displayed a melting point of 126 °C.

Consider `O=C1c2ccc(OCCO)cc2C(=O)c2cc(-c3nnn[nH]3)ccc21`, for which the melting point is 260 to 262 °C.

The compound `COc1cccc2c1[nH]c(=O)n2C(=O)Oc1ccccc1` displayed a melting point of 204 to 205 °C.

Take `CN(C)c1ccc(C(c2ccc(N(C)C)cc2)c2ccc(N(C)C)cc2C(=O)O)cc1`: the melting point was 210 to 212 °C.

Turning to `CC(C)Nc1nccc(C#C[Si](C)(C)C)n1`, the melting point was in the range of 93 to 94 °C.

`CCOC(=O)C1=C(COCc2cccnc2)NC(COCc2cccnc2)=C(C(=O)OCC)C1c1cccc([N+](=O)[O-])c1`: the melting point fell in the range of 169 to 171 °C.
